“Also recorded” adds a separate entry of the source.

Assay [1] has as its system Ae. increpitus mosquito antennal lobe (AL) glomeruli. Briefly: Two-photon calcium imaging (Fluo4) of the antennal lobe, Ae. increpitus. The assay is classed as in vivo. Here is the method: Odor-evoked responses in the Ae. increpitus mosquito antennal lobe (AL) with nine female mosquitoes at the beginning of the season when mosquitoes were relatively young (as defined by wing and scale appearance). Calcium imaging experiments were conducted using application of the calcium indicator Fluo4 to the mosquito brain and using a stage that allows simultaneous calcium imaging and tethered flight. The mosquito was cooled on ice and transferred to a Peltier-cooled holder that enables the mosquito to head to be fixed to the stage using ultraviolet glue. The custom stage permits the superfusion of saline to the head capsule and space for movement by the wings and proboscis. Once the mosquito was fixed to the stage, a window in its head was cut to expose the brain, and the brain was continuously superfused with physiological saline. Next, the perineural sheath was gently removed from the AL using fine forceps and 75 μL of the Fluo4 solution—made by […] of Fluo4 in 30 μL Pluronic F-127 and then subsequently diluted in 950 μL of mosquito physiological saline—was pipetted to the holder allowing the brain to be completely immersed in the dye. Mosquitoes were kept in the dark at 15° C. for 1.5 h (the appropriate time for adequate penetration of the dye into the tissue), after which the brain was washed 3 times with physiological saline. After the rinse, mosquitoes were kept in the dark at room temperature for approximately 10-20 min. before imaging.
Wing stroke amplitudes were acquired and analyzed using a custom camera-based computer vision system at frame rates of 100 Hz, where the mosquito was illuminated with infrared LEDs (880 nm) and images were collected with an infrared-sensitive camera synched to the two-photon system. Stimulus-evoked initiation of flight and changes in the amplitude of the wing-stroke envelope were characterized for each odor stimulus. Calcium-evoked responses in the AL were imaged using the Prairie Ultima IV two-photon excitation microscope (Prairie Technologies) and Ti-Sapphire laser (Chameleon Ultra; Coherent). Experiments were performed at a depth of 40 μm from the ventral surface of the AL, allowing the calcium dynamics from approximately 18-22 glomeruli to be repeatedly imaged across preparations. Images were collected at 2 Hz, and for each odor stimulus images were acquired for 35 s, starting 10 s before the stimulus onset. Imaging data were extracted in Fiji/ImageJ and imported into Matlab (v2017; Mathworks, Natick, Mass.) for Gaussian filtering (2×2 pixel; σ=1.5-3) and alignment using a single frame as the reference at a given imaging depth and subsequently registered to every frame to within ¼ pixel. Trigger-averaged ΔF/F was used for comparing glomerular responses between odor stimuli. […]

Assay [2] deals with Ae. aegypti AL glomeruli. The experiment in a line: Two-photon calcium imaging (PUb-GCaMP6s) of the antennal lobe, Ae. aegypti. Format: in vivo. An excerpt:
A total of twenty preparations were used: 10 for single odorant and orchid mixture experiments; 6 for ratio experiments; and 4 for experiments using GABA-receptor antagonists. […] The expression of GCaMP occurred in glia, local interneurons, and projection neurons. […] Thus, in the calcium imaging experiments care was taken to image from the central regions of the glomeruli and avoid the sheaths and external glomerular loci. […] Relatedly, GCaMP6s expression is very high in AL local interneurons and projection neurons (PNs), such that during odor stimulation the PNs and axonal processes can often be imaged, and 3D reconstructions can be take place through simultaneous optical sections with odor stimulation. Nonetheless, the glomerular responses were assumed to be a function of multiple cell types.
Similar to experiments with Ae. increpitus, the majority the mosquitoes were UV-glued to the stage to allow free movement of their wings and proboscis; however, for experiments using GABA-receptor antagonists the proboscis was glued to the stage for additional stability. Once the mosquito was fixed to the stage, a window in its head was cut to expose the brain, and the brain was continuously superfused with physiological saline.
Thus a provisional atlas was created with female mosquitoes (n=6) that allowed for cross-reference of the imaged glomeruli and comparison of their positions and structures to those described in the atlas. This was accomplished via clear glomerular boundaries, especially during odor stimulation, and the distinct odorant tuning of glomeruli throughout the depths of the AL (e.g., AM2 responsive to DEET; LC2 and AL3 responsive to nonanal; PD3 responsive to geosmin; and MD2 responsive to CO2) that allowed 3D registration across preparations and subsequent warping and referencing with the atlas.
Saline and pharmacological agents. The saline was made based on the Beyenbach and Masia recipe (L. B. Thien, F. Utech, The mode of pollination in Habenaria obtusata (Orchidaceae). American Journal of Botany 57, 1031-1035 (1970)) and contained 150.0 mM NaCl, 25.0 mM N-2-hydroxyethyl-piperazine-N′-2-ethanesulfonic acid (HEPES), 5.0 mM sucrose, 3.4 mM KCl, 1.8 mM NaHCO3, 1.7 mM CaCl2, and 1.0 mM MgCl2. The pH was adjusted to 7 with 1 M NaOH. […] […] A drip system comprising two 100 mL reservoirs—one containing the GABA receptor antagonists, and the other saline—converged on the two-channel temperature controller to facilitate rapid switching from normal physiological saline solution to the antagonists and back. Antagonists were superfused directly into the holder near to the opening of the head capsule and recorded neuropil. The odor-evoked responses were first recorded under normal physiological saline solution and then repeated under GABA receptor antagonists diluted in normal saline solution, and finally the normal saline wash. All calcium imaging data were statistically analyzed using Kruskal-Wallis tests with multiple comparisons and visualized using Principal Components Analysis. Analyses were performed in Matlab (v2017; Mathworks, Natick, Mass.).
Olfactory stimuli were delivered to the mosquito by pulses of air diverted through a 2 mL cartridge containing a piece of filter paper bearing the odor stimulus (2 An air line provided gentle and constant charcoal-filtered air at 1 m/s to the antennae allowing continuous ventilation to prevent adaptation of the olfactory receptor cells. The stimulus output was positioned in the air line 2 cm from and orthogonal to the mosquito antennae. For testing different ratios of lilac aldehyde and nonanal, two syringes bearing different concentrations of the odorants were used and positioned such that the outputs were positioned in the same location in the air stream. […]

Setting [3] is: lilac aldehyde and nonanal at different concentration ratios.

Turning to `CCCCCCCCC=O` [nonanal], the AM2 glomerulus response entry in assay [1] (odor stimulation) and in assay [2] (odor stimulation) was “often exhibited inhibition” in each case. For the same compound, the LC2 glomerulus response result in assay [1] (single odorants) is given as “strongest response”; in assay [2] (single odorants) it was “responsive; also recorded: strongest response”. Besides, the “glomerular responses in the AL” value in assay [2] (imaged at 40 μm depth, particularly AL3 and LC2 glomeruli for the mixture) is “strong responses”. Further, the “AM2 response to lilac aldehyde/nonanal mixtures” value in assay [2] (setting [3]) is reported as “caused suppression of AM2 responses to lilac aldehyde”. Besides, the “LC2 response to lilac aldehyde/nonanal mixtures” value in assay [2] (setting [3]) is reported as “increasing the activation of LC2”. Besides, the AL3 glomerulus response entry in assay [2] (odorant tuning used for glomerular registration) was “responsive”.
